Results taken from patent US20090326035A1, “Compositions and Methods for Preventing or Reducing Postoperative Ileus and Gastric Stasis in Mammals” (priority 2006, published 2009).

Tested on: Male Sprague Dawley rats
Assay: Charcoal transit model of postoperative ileus (POI) after cecum manipulation
Type: in vivo, rat
Settings: for Prevention of POI (in words): delivered via gel to the manipulated intestines; for % GI Transfer: 4 h after oral charcoal meal; for Dose response of the effect on POI (in words): low versus high dose gel formulations
Excerpt: The charcoal transit model is an acceptable and established model to study the effects of abdominal surgery on intestinal motility. We followed the procedure as described by De Winter et al. (1997) (Reference: Effect of adrenergic and nitrergic blockade on experimental ileus in rats. British Journal of Pharmacology (1997) 120, 464-468. Benedicte Y. De Winter, Guy E. Boeckxstaens, Joris G. De Man, Tom G. Moreels, Arnold G. Herman & Paul A. Pelckmans). The model simulates the abdominal procedure in human and tests for gastric emptying and intestinal motility by the transfer of a charcoal meal fed to the animals.
Male Sprague Dawley rats, weighing 250-275 g (8 in group) were anesthetized with a xylazine/ketamine cocktail, injected IM, the abdomen was shaved and disinfected with alcohol and Betadyne. A 2.5 cm incision was made from the xyphoid process caudally. The intestinal contents was exteriorized onto wet gauze. The cecum was manipulated gently for 1 minute. The abdominal contents were replaced, the treatment was applied, and the body wall was closed with 4-0 PDS for the fascia and muscle layers. The skin was closed with wound clips. In addition, two control groups were tested as well: incision only and naïve. Treatment groups included two control groups, surgery (incision only) and naïve, and two treatment groups, a high and low dose of Diclofenac, as well as 3 wt % Na-CMC gel alone. The high and low dose of Diclofenac, as well as the 3 wt % Na-CMC gel were prepared as described above. 8 rats were included in each group with a total of 40 rats.
The rats were treated with an oral solution of charcoal (10%) in acacia gum (2%). Four hours following oral administration rats were euthanized with Euthasole. The intestines were exteriorized and the distance traveled by the charcoal meal was measured as well as the full length of the intestines (from the pylorus through the anus). Results are expressed as percent of distance traveled relative to the full length of the intestines.
Male Sprague Dawley rats, weighing 250-275 g (8 in group) were anesthetized with a xylazine/ketamine cocktail, injected IM, the abdomen was shaved and disinfected with alcohol and Betadyne. A 2.5 cm incision was made from the xyphoid process caudally. The intestinal contents was exteriorized onto wet gauze. The cecum was manipulated gently for 1 minute. The abdominal contents were replaced, the treatment was applied, and the body wall was closed with 4-0 PDS for the fascia and muscle layers. The skin was closed with wound clips. In addition, two control groups were tested as well: incision only and naïve. Treatment groups included two control groups, surgery (incision only) and naïve, and 4 treatment groups, a high and low dose of Diclofenac, a high and a low dose of Naproxen, as well as 3 wt % Na-CMC gel alone. The high and low dose of Diclofenac, as well as the 3 wt % Na-CMC gel were prepared as described above. 8 rats were included in each group with a total of 56 rats.

[1] = Example 2, both doses (0.3 and 2.0 mg) in gel, compared with non-treated and gel-alone animals
[2] = Example 2, high dose 2.0 mg in 3 wt % Na-CMC gel applied after intestinal manipulation
[3] = Example 2, low dose 0.3 mg in 3 wt % Na-CMC gel applied after intestinal manipulation

SMILES | Prevention of POI (in words) (Example 1, high dose, listed as Diclofenac sodium) | Prevention of POI (in words) (Example 1, high dose, listed as diclofenac) | % GI Transfer (Example 1, listed as 'Diclofenac-Na high', dose printed 0.3 mg, in 3 wt % Na-CMC gel applied after intestinal manipulation, distance traveled relative to full intestine length) [%] | % GI Transfer (Example 1, listed as 'Diclofenac-Na low', dose printed 1.0 mg, in 3 wt % Na-CMC gel applied after intestinal manipulation, distance traveled relative to full intestine length) [%] | Prevention of POI (in words) (Example 1, low dose) | Dose response of the effect on POI (in words) | Alleviation of POI (in words) [1] | % GI Transfer [2] [%] | % GI Transfer [3] [%] | Alleviation of POI (in words) (Example 2, high dose (2.0 mg) in gel)
O=C(O)Cc1ccccc1Nc1c(Cl)cccc1Cl [Diclofenac-Na, Diclofenac sodium] | complete prevention | completely alleviated the POI | 73.58 | 95.05 | significant prevention of POI | dose related manner | – | – | – | –
O=C(c1ccccc1)c1ccc2n1CCC2C(=O)O (stereo not drawn) [Ketorolac] | – | – | – | – | – | dose response was not observed | significant alleviation of the POI | 69.84 | 70.99 | –
COc1ccc2cc([C@H](C)C(=O)O)ccc2c1 [Naproxen] | – | – | – | – | – | dose related prevention of the POI | both doses improved on the gastric emptying and intestinal transfer | 65.34 | 56.9 | not completely curative
